# Patent EP2792360A1, “(1aR,12bS)-8-cyclohexyl-11-fluoro-N-((1-methylcyclopropyl)sulfonyl)-1a-((3-methyl-3,8-diazabicyclo[3.2.1]oct-8-yl)carbonyl)-1,1a,2,2b-tetrahydrocyclopropa[d]indolo[2,1-a][2]benzazepine-5-carboxamide for use in treating HCV” (IP Gesellschaft für Management mbH, priority 2013, dated 2014)
# Tests used:
# [1] = Hygroscopicity of solid forms of compound of formula (IV) (Ph. Eur. classification); assay type: physicochemical
# Description: For the thermogravimetric analyses, approx. 5 - 10 mg of sample were placed in aluminum pans, accurately weighed and hermetically closed with perforation lids. […] The samples were then heated under a flow of nitrogen of about 50 mL/min using a heating rate of 5 K/min. The term "micronization" denotes a process whereby the particle size of a solid material is diminished to a d50 value of less than IOµm by the aid of a suitable method, such as milling, bashing or grinding. […] The term "anti-solvent crystallization" denotes a process wherein supers aturation and as a result thereof crystallisation is achieved by addition of an antisolvent to the product solution. The term "ambient conditions" denotes conditions as experienced in a standard laboratory, e.g. atmospheric pressure, air, ambient temperature between 18 °C and 28 °C, humidity between 30 %rH and 80 %rH. The term "hygroscopicity" describes the ability of a solid material to adsorb moisture. The hygroscopicity of a given API is characterized [European Pharmacopoeia - 6th Edition (2008), Chapter 5.11) by the increase in mass when the relative humidity is raised from 0 %rH to 90 %rH: o non-hygroscopic: weight increase Am < 0.2%; o slightly hygroscopic: weight increase 0.2% < Am < 2.0%; o hygroscopic: weight increase 2.0% < Am < 15.0%; o very hygroscopic: weight increase Am > 15.0%; o deliquescent: sufficient water is adsorbed to form a liquid. The IUPAC lamda convention (W.H. Powell, Pure & Appl. Chem. […] The bonding number "n" of a heteroatom is the sum of the total number of valence bonds to adjacent atoms, if any, and the number of attached hydrogen atoms. The bonding number of a heteroatom is standard when it has the value given in the following table: n=4: C, Si, Ge, Sn, Pb; n=3 B, N, P, As, Sb, Bi, n=2: O, S, Se, Te, Po; n=l; F, CI, Br, I, At. A nonstandard bonding number of a (neutral) heteroatom is indicated by the symbol "λη", where "n" is the bonding number. […]
# [2] = Solid form stability of forms of compound of formula (IV) (Temperature / Humidity Controlled XRPD, storage, suspension); assay type: physicochemical
# Description: The term"XRPD" denotes the analytical method of X-Ray Powder Diffraction. XRPD patterns were recorded at ambient conditions in transmission geometry with a STOE STADI P diffractometer (Cu K alpha radiation source, primary monochromator, position sensitive detector, angular range 3° to 42° 2Theta, approximately 60 minutes total measurement time). The repeatability of the angular values is in the range of 2Theta ±0.2°. The term "approximately" given in combination with an angular value denotes the repeatability which is in the range of 2Theta ±0.2°. The samples were prepared and analyzed without further processing (e.g. grinding or sieving) of the substance. The relative XRPD peak intensity is dependent upon many factors such as structure factor, temperature factor, crystallinity, polarization factor, multiplicity, and Lorentz factor. Relative intensities may vary considerably from one measurement to another due to preferred orientation effects. Humidity Controlled XRPD analyses were performed in reflection geometry with a Siemens D5000 Diffractometer (Cu radiation source, Ni K beta filter, Scintillation detector, angular range 3° to 42° 2Theta, approximately 180 minutes total measurement time per humidity level). The diffractometer is equipped with an MRI (Materials Research Instruments) humidity chamber. The humidity within the chamber is adjusted with an ANSYCO humidity controller (SYCOS H-HOT). For single crystal structure analysis a single crystal sample was mounted in a nylon loop on a goniometer and measured at ambient conditions. Alternatively, the crystal was cooled in a nitrogen stream during measurement. Data were collected on a GEMINI R Ultra diffractometer from Oxford Diffraction. Cu-radiation of 1.54 A wavelength was used for data collection. Data was processed with the Oxford Diffraction CRYSALIS software. The crystal structure was solved and refined with standard crystallographic software. In this case the program ShelXTL from Bruker AXS (Karlsruhe) was used. The abbreviation "FWHM" denotes the full width at half maximum, which is a width of a peak (e.g. appearing in a spectrum, particularly in an XRPD pattern) at its half height. The term "sharp Bragg diffraction peak" in connection with X-ray diffraction patterns denotes a peak which is observed if Bragg' s law of diffraction is fulfilled. Generally, the FWHM of a sharp Bragg diffraction peak is less than 0.5° 2-theta. The term "amorphous halo" in connection with X-ray diffraction patterns denotes an approximately bell- shaped diffraction maximum in the X-ray powder diffraction pattern of an amorphous material. The FWHM of an amorphous halo is on principle larger than the FWHM of the peak of crystalline material. The terms "FTIR" and "IR" denote the analytical method of infrared spectroscopy. The IR-spectra of the samples are recorded as film of a Nujol suspension consisting of approx. 5 mg of sample and approx. 5 mg of Nujol (mineral oil) between two sodium chloride plates (cross section 13 mm) in transmittance with a FTIR- spectrometer. The spectra were recorded in spectral range between 4000 cm"1 and 600 cm"1, resolution 2 cm"1, and 300 coadded scans on a Magna 860 (thermo/Nicolet) equipped with a DTGS detector. The term "Raman" denotes the analytical method of Raman spectroscopy. For recording Raman spectra, the samples were spread on a glass slide. Raman spectra were recorded in the range of 150-3800 cm"1 with an ARAMIS (HoribaJobinYvon) Raman microscope equipped with a Peltier cooled CCD detector, at excitation of 633 nm, a 1200 1/mm grating, a x50 objective and with 3 exposures of 3s, or 7s for weak Raman scatterers. The term "DSC" denotes the analytical method of Differential Scanning Calorimetry. DSC thermograms were recorded using a Mettler-Toledo™ differential scanning calorimeter DSC820, DSC821 or DSC1 with a FRS05 sensor. […]
# physchem = assay: physchem
# Description: Anal. Chem. Instrum. […] Drug Delivery Rev. […] The binding constant (K) of the gamma-CD inclusion complex ({drug4g}) was calculated from the initial straight line portion of the phase solubility diagram by linear regression, according to the following equation [T. Higuchi et al., Adv. Anal. Chem. Instrum.
# [3] = Biopharmaceutical classification system (BCS); assay type: physicochemical
# Description: The compound of formula (IV), its manufacture, its pharmacological activity as inverse agonists of the GABA A a5 receptor, and its use for the treatment, prevention and/or delay of progression of various central nervous system (CNS) conditions have been described in WO 2009/071476. […] Res. (1995) 12:413-420]. […] If anhydrous solid forms of the compound of formula (IV), as described in WO 2009/071476, are selected for clinical development, a physical instability in terms of hydrate formation during pharmaceutical processing and/or storage of the drug product is possible. […] Further, the discovery of new solid forms of an API (polymorphs, solvates, salts, inclusion complexes) enlarges the repertoire of materials that a formulation scientist has available with which to design a pharmaceutical dosage form of a drug with a targeted release profile or other desired characteristics. Therefore, there is a need to find more solid forms of the compound of formula (IV). […] The instant invention provides novel solid forms of the compound of formula (IV) with improved solubility, dissolution rate, oral bioavailability as well as increased stability of the API. In addition, the instant invention provides novel inclusion complexes of compounds of formula (IV) with cyclodextrins. Such inclusion complexes further feature improved dissolution rate and bioavailability. […]
compound,measurement,setting,value
"Cc1onc(-c2ccc(F)cc2)c1COc1ccc(C(=O)N2CCS(=O)(=O)CC2)cn1 [Amorphous Form ({drug4f}), (1,1-dioxo-1lambda6-thiomorpholin-4-yl)-{6-[3-(4-fluoro-phenyl)-5-methyl-isoxazol-4-ylmethoxy]-pyridin-3-yl]-methanone]",hygroscopicity,[1],slightly hygroscopic (slightly hygroscopic: weight increase 0.2% < Am < 2.0%)
same,phase change upon storage at 100 rH at ambient temperature,"[2]; Form C: prolonged period, e.g. 30 days",no phase transformation has been observed
"Cc1onc(-c2ccc(F)cc2)c1COc1ccc(C(=O)N2CCS(=O)(=O)CC2)cn1 [compound of formula (IV), (1,1-dioxo-1lambda6-thiomorpholin-4-yl)-{6-[3-(4-fluoro-phenyl)-5-methyl-isoxazol-4-ylmethoxy]-pyridin-3-yl]-methanone]",type of phase solubility diagram with gamma-cyclodextrin,physchem,Bs-type behavior
same,aqueous solubility,[3],low aqueous solubility
same,biopharmaceutical classification,[3],BCS 2
"Cc1onc(-c2ccc(F)cc2)c1COc1ccc(C(=O)N2CCS(=O)(=O)CC2)cn1.O [Form B ({drug4b}), (1,1-dioxo-1lambda6-thiomorpholin-4-yl)-{6-[3-(4-fluoro-phenyl)-5-methyl-isoxazol-4-ylmethoxy]-pyridin-3-yl]-methanone monohydrate]",hygroscopicity,[1],hygroscopic (hygroscopic: weight increase 2.0% < Am < 15.0%)
same,heating temperature at which the form transforms into Form A,[2],> 100 °C
same,stability as compared to Form A,"[2]; in the presence of humidity, e.g. at ambient conditions",substantially increased
OC[C@H]1O[C@@H]2O[C@H]3[C@H](O)[C@@H](O)[C@@H](O[C@H]4[C@H](O)[C@@H](O)[C@@H](O[C@H]5[C@H](O)[C@@H](O)[C@@H](O[C@H]6[C@H](O)[C@@H](O)[C@@H](O[C@H]7[C@H](O)[C@@H](O)[C@@H](O[C@H]8[C@H](O)[C@@H](O)[C@@H](O[C@H]9[C@H](O)[C@@H](O)[C@@H](O[C@H]1[C@H](O)[C@H]2O)O[C@@H]9CO)O[C@@H]8CO)O[C@@H]7CO)O[C@@H]6CO)O[C@@H]5CO)O[C@@H]4CO)O[C@@H]3CO [gamma-cyclodextrin],solubility,physchem; water,150 mM
